This is an account of results in article doi:10.1101/2025.03.25.645215v1 (biorxiv, 2025).

In general, IC50 refers to the concentration that inhibits the measured activity by half. The low end stands for higher potency, the high end for lower potency. In general, Km refers to the substrate concentration at which the rate is half of its maximum.

The target of data set [1] is T1, B^0AT2/SLC6A15 (eGFP-hSLC6A15) (Homo sapiens, UniProt Q9H2J7).
T1 sequence (Q9H2J7 1-730): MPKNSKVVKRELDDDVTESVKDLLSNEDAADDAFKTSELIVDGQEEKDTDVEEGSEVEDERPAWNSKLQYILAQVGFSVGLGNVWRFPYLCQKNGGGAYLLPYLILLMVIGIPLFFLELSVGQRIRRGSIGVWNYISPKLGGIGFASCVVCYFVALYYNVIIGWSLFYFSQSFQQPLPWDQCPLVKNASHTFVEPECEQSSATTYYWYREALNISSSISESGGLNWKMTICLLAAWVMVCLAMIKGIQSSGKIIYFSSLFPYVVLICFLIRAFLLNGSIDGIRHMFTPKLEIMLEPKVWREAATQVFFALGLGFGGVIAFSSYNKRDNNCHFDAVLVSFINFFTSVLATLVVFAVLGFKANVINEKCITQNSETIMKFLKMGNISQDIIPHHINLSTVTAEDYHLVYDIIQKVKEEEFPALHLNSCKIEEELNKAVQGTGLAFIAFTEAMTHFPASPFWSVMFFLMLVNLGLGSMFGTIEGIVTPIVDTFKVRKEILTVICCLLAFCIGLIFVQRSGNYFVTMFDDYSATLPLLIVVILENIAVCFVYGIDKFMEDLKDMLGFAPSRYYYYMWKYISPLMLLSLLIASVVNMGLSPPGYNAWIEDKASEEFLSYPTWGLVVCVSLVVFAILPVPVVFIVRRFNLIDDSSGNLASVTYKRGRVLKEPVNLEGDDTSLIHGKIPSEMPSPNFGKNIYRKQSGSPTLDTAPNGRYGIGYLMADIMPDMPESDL
The experiment in a line: cell-based. Further details: species or system HEK293 eGFP-hSLC6A15.

In the next data set the target is DAT (hDAT) (Homo sapiens, UniProt Q01959). The experiment in a line: 3H-dopamine uptake inhibition, HEK293, 384-well. The format is cell-based.
DAT (hDAT), sequence (Q01959 whole entry): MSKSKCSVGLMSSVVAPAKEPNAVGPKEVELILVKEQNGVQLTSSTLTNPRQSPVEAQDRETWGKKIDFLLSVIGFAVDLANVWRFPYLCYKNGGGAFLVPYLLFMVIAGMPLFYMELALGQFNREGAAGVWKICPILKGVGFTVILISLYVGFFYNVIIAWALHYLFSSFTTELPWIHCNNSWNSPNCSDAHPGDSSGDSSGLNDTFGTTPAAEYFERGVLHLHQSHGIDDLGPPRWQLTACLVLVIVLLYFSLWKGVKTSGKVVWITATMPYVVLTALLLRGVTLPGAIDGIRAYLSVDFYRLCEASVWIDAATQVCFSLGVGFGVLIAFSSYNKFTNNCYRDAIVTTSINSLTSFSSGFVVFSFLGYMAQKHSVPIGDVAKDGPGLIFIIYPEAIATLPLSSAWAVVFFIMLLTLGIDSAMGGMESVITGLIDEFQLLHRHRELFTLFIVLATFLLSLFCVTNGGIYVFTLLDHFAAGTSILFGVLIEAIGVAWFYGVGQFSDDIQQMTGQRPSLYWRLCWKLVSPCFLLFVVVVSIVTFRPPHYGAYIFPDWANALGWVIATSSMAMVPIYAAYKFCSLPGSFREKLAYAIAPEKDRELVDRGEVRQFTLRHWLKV
Another data set deals with SERT (hSERT) (Homo sapiens, UniProt P31645). Briefly: 3H-5HT uptake inhibition, HEK293, 384-well. Type of data set: cell-based.
SERT (hSERT), sequence (P31645 whole entry): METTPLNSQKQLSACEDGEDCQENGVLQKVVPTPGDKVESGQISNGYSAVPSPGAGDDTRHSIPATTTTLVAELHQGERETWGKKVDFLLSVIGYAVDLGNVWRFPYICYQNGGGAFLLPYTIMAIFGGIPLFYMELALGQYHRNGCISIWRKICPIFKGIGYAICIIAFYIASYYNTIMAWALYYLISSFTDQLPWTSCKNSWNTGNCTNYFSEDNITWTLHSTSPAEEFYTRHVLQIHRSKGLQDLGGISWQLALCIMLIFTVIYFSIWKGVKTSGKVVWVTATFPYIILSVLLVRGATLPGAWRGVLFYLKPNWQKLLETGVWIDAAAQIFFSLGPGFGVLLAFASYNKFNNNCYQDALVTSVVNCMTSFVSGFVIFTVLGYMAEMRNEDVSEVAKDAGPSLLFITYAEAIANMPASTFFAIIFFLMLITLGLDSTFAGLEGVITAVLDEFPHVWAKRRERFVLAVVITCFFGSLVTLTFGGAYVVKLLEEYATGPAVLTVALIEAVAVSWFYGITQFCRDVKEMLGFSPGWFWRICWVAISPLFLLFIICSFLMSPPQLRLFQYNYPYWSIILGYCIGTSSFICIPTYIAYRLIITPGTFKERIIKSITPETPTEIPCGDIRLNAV
The target of another data set is GAT1 (hGAT1) (Homo sapiens, UniProt P30531). The experiment in a line: 3H-GABA uptake inhibition, HEK293, 384-well. The format is cell-based.
GAT1 (hGAT1), sequence (P30531 whole entry): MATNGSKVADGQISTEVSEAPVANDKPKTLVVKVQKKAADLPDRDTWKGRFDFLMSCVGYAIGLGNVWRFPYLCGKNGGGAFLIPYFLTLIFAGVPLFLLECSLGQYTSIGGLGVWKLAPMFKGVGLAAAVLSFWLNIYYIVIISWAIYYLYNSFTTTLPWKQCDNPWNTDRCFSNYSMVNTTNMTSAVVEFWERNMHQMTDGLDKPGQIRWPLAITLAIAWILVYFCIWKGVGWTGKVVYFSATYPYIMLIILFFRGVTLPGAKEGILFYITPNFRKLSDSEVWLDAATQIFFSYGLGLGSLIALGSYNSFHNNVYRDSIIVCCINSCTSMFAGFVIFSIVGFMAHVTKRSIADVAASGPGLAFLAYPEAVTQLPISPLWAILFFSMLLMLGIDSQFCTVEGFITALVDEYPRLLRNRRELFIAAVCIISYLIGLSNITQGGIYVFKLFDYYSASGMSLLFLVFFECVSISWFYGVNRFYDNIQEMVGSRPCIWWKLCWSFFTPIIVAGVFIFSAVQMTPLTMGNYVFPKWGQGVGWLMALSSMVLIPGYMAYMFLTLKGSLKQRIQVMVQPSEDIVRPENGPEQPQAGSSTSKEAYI
For data set [2], the target named is T1, B^0AT2/SLC6A15 (eGFP-hSLC6A15). Briefly: cell-based. Further details: species or system HEK293 eGFP-hSLC6A15. The source holds these as a separate data set.
For data set [3], the system named is NTT4/SLC6A17 (NTT4-B^0AT2 chimera). The experiment in a line: 3H-proline uptake inhibition, HEK293, 384-well. The note with it: blanket statement for all 1,5-benzodiazepine analogs. The format is cell-based.
For data set [4], the target named is T1, B^0AT2/SLC6A15 (eGFP-hSLC6A15). The experiment in a line: inhibition of 3H-proline uptake by unlabelled proline, HEK293. The format is cell-based.
The target is the same in data set [5]. Briefly: cell-based. More on the design: species or system HEK293 eGFP-hSLC6A15. This is another data set of the same source.
Data set [6] has the same target. The experiment in a line: inhibition of 3H-proline uptake, HEK293. Type of data set: cell-based.
In data set [7] the target is T2, B^0AT2/SLC6A15 (AAV mouse SLC6A15 in primary hippocampal neurons) (Mus musculus, UniProt Q8BG16).
T2 sequence (Q8BG16 1-729): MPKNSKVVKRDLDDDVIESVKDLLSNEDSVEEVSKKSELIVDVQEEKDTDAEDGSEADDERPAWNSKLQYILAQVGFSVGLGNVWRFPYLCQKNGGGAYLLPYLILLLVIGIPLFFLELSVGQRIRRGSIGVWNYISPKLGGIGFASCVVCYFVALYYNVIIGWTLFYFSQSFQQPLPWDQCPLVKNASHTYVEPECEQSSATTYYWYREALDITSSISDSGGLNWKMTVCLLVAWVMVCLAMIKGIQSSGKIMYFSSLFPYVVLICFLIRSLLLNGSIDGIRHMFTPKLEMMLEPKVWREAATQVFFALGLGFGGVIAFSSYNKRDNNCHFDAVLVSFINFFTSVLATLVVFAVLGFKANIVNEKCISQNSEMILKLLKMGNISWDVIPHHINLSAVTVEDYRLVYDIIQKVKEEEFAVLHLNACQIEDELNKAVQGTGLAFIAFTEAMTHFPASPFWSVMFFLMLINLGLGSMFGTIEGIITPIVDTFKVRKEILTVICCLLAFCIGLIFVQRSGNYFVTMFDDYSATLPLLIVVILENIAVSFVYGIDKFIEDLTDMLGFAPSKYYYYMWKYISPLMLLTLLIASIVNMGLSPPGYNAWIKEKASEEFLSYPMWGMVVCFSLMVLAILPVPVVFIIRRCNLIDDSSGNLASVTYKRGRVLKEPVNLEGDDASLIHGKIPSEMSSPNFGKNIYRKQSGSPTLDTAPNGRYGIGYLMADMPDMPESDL
Briefly: 3H-proline uptake inhibition, AAV-transduced primary hippocampal neurons. The format is cell-based.

Substrate in data set [8]: O=C(O)[C@@H]1CCCN1
The experiment in a line: cells, lysate or membranes. The note with it: labelled compound, pH 7.4, 120 mM Na+.

`COc1ccc(C2C3=C(CCCC3=O)Nc3ccccc3N2C(=O)c2ccccc2)cc1OC` (stereo not drawn) [10b]: the IC50 in data set [1] was 1.4 ± 0.2 µM.

For the molecule `O=C1CCCC2=C1C(c1ccccc1)N(C(=O)c1ccccc1)c1ccccc1N2` (stereo not drawn) [10f], the IC50 in data set [1] was determined as 1.2 ± 0.2 µM.

`COc1ccc(C2C3=C(CC(c4ccco4)CC3=O)Nc3ccccc3N2C(=O)c2ccccc2)cc1` (stereo not drawn) [14d]: the half-maximal inhibitory concentration (IC50) against DAT (hDAT) is over 80 µM; at SERT (hSERT), over 80 µM; against GAT1 (hGAT1), over 80 µM; in data set [2], 0.49 ± 0.03 µM; in data set [3] it was over 80 µM.

In [1], `O=C1CCCC2=C1C(c1ccc(Cl)c(Cl)c1)N(C(=O)c1ccccc1)c1ccccc1N2` (stereo not drawn) [10d] came in with a concentration for half-maximal inhibition (IC50) of 2.5 ± 0.4 µM.

As for `COc1cc(C2C3=C(CCCC3=O)Nc3ccccc3N2C(=O)c2ccccc2)ccc1O` (stereo not drawn) [10a], the IC50 was over 80 µM against SERT (hSERT), over 80 µM at GAT1 (hGAT1), over 80 µM in data set [3] and 0.93 ± 0.08 µM in data set [1].

Consider `O=C(O)[C@@H]1CCCN1` [proline], for which the IC50 in [4] came out at 257 ± 53 µM.

Turning to `CC1(C)CC(=O)C2=C(C1)Nc1ccccc1N(C(=O)c1ccccc1)C2c1ccc2c(c1)OCO2` (stereo not drawn) [11x], the IC50 on DAT (hDAT) was over 80 µM; at SERT (hSERT) it was over 80 µM; against GAT1 (hGAT1) it was over 80 µM; in [3], over 80 µM; in [5], 0.8 ± 0.3 µM.

On to `CC(C)C[C@H](N)C(=O)O` [leucine], for which the IC50 in data set [6] amounted to 210 ± 30 µM.

As to `O=C1CCCC2=C1C(c1ccc(F)cc1)N(C(=O)c1ccccc1)c1ccccc1N2` (stereo not drawn) [10e], the IC50 in [1] amounted to 2.9 ± 0.6 µM.

Regarding `COc1ccc(C2C3=C(CC(C)CC3=O)Nc3ccccc3N2C(=O)c2ccccc2)cc1` (stereo not drawn) [14c], the IC50 in data set [7] is 1 ± 0.4 µM; on DAT (hDAT) it was over 80 µM; against SERT (hSERT), over 80 µM; against GAT1 (hGAT1), over 80 µM; in data set [2], 0.24 ± 0.05 µM; in data set [3], over 80 µM.

For `CC1(C)CC(=O)C2=C(C1)Nc1ccccc1N(C(=O)c1ccccc1)C2c1ccc(C(C)(C)C)cc1` (stereo not drawn) [11n], the IC50 (against SERT (hSERT); on GAT1 (hGAT1); in [3]; in data set [5]) was over 80 µM throughout.

As to `COc1ccc(C2C3=C(CCCC3=O)Nc3ccccc3N2C(=O)c2ccccc2)cc1` (stereo not drawn) [10c], the concentration for half-maximal inhibition (IC50) in data set [1] was determined as 0.66 ± 0.07 µM.

As to `COc1ccc(C2C3=C(CC(c4ccc(OC)c(OC)c4)CC3=O)Nc3ccccc3N2C(=O)c2ccccc2)cc1` (stereo not drawn) [14f], the IC50 (against SERT (hSERT); at GAT1 (hGAT1); in data set [2]; in data set [3]) was over 80 µM in each case.

B1: B^0AT2/SLC6A15 (eGFP-hSLC6A15) (Homo sapiens) (protein)
chain: T1 sequence (Q9H2J7 1-730)
Regarding B1, the Km in data set [8] turned out to be 960 ± 51 µM.
